Key:
Myzus persicae = test: Tests against Myzus persicae: sprayed sunflower leaf discs, mortality; type: in vivo; details: 6 days after infestation
Description: (§1) A synergistic effect exists whenever the action of an active ingredient combination is greater than the sum of the actions of the individual components. The action to be expected E for a given active ingredient combination obeys the so-called COLBY formula and can be calculated as follows (COLBY, S. R. “Calculating synergistic and antagonistic responses of herbicide combination”. Weeds, Vol. 15, pages 20-22 1967):
(§2) According to Colby, the expected (additive) action of active ingredients A+B using p+q ppm of active ingredient is
(§3) If the action actually observed O is greater than the expected action E, then the action of the combination is super-additive, i.e. there is a synergistic effect. In mathematical terms, synergism corresponds to a positive value for the difference of (O-E). In the case of purely complementary addition of activities (expected activity), said difference (O-E) is zero. A negative value of said difference (O-E) signals a loss of activity compared to the expected activity.
Component (A1) is a mixture of NAL, NFL and NANL in a weight ratio of about approximately 1:4:2. Stock solutions of thiamethoxam and flonicamid were prepared respectively by dissolving the technical active ingredient in DMSO. The aqueous test solutions were prepared by mixing together the appropriate stock solutions to the desired concentrations.
Tests Against Myzus persicae
Sunflower leaf discs were placed on agar in a 24-well microtiter plate and sprayed with aqueous test solutions prepared from DMSO stock solutions. After drying, the leaf discs were infested with an aphid population of mixed ages. The samples were assessed for mortality 6 days after infestation.

Thrips tabaci = test: Tests against Thrips tabaci: sprayed sunflower leaf discs, mortality; type: in vivo; details: 6 days after infestation
Description: as §1, §2, §3
Component (A1) is a mixture of NAL, NFL and NANL in a weight ratio of about approximately 1:4:2. […]
Sunflower leaf discs were placed on agar in 24-well microtiter plates and sprayed with aqueous test solutions prepared from DMSO stock solutions. […] The samples were assessed for mortality 6 days after infestation.

Row | Compound | mortality at 0.4 ppm (Myzus persicae; Myzus persicae, foliar, 144 h, thiamethoxam 0.4 ppm alone, read-out: % Mortality Measured) | mortality at 0.8 ppm (Myzus persicae; Myzus persicae, foliar, 144 h, thiamethoxam 0.8 ppm alone, read-out: % Mortality Measured) | mortality at 1.6 ppm (Myzus persicae; Myzus persicae, foliar, 144 h, thiamethoxam 1.6 ppm alone, read-out: % Mortality Measured) | % Mortality Measured (Thrips tabaci; flonicamid 100 ppm alone) | % Mortality Measured (Thrips tabaci; flonicamid 200 ppm alone) | % Mortality Measured (Myzus persicae; flonicamid 3.125 ppm alone) | % Mortality Measured (Myzus persicae; flonicamid 6.25 ppm alone) | % Mortality Measured (Myzus persicae; flonicamid 12.5 ppm alone)
1 | CN1COCN(Cc2cnc(Cl)s2)/C1=N\[N+](=O)[O-] [Thiamethoxam, thiamethoxam] | 0% | 0% | 45% |  |  |  |  | 
2 | N#CCNC(=O)c1cnccc1C(F)(F)F [Flonicamid, flonicamid] |  |  |  | 0% | 0% | 0% | 65% | 90%

Source: patent publication US10537104B2, “Insecticide mixtures comprising loline alkaloids” (SYNGENTA PARTICIPATIONS AG, priority 2016, dated 2020)
